Test results: patent US12590062B2, “PD-1/PD-L1 inhibitors” (Gilead Sciences, Inc., priority 2017, dated 2026)

What was measured:
[1] = molecular target: T1, PD-1/PD-L1 interaction (Homo sapiens, UniProt Q9NZQ7); test: PD-1/PD-L1 NFAT reporter co-culture assay; format: cell-based; settings: Jurkat PD-1 NFAT-luciferase cells co-cultured with aAPC-PD-L1 CHO cells, 6 hrs at 37° C.; read-out: EC50 NFAT Luciferase
T1 construct: expressed in transfected cells; host or cells: CHO cells (aAPC-PD-L1) co-cultured with Jurkat cells overexpressing PD-1 and an NFAT-luciferase reporter
Summary of the method: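 Jurkat cells overexpressing PD-1 with NFAT-luciferase mixed with compounds and plated onto CHO aAPCs expressing anti-CD3 and PD-L1, RPMI with 2% FBS. Co-culture 6 h at 37 °C; luminescence read with ONE-Glo. EC50 from four-parameter fit.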

[2] = molecular target: PD-1/PD-L1 (Homo sapiens, UniProt Q9NZQ7); test: PD-1/PD-L1 biochemical protein-protein interaction assay (ALPHA); format: binding; settings: 0.3 nM His tagged PD-L1, 2.5 nM biotinylated Fc-PD-1, 60 minutes at 25° C., read-out: IC50 PD-L1-PD-1 Alpha IC50-mono PD-L1-fcP-D1
Method: Biological Activity PD-1/PD-L1 & CTLA/CD80 Biochemical Protein-Protein Interaction Assay
Compounds were tested in biochemical protein-protein interaction assays to determine if they can specifically block the interaction between the extracellular domains of PD-1/PD-L1 or CTLA/CD80. Binding of the protein pairs is measured using a bead based Amplified Luminescent Proximity Homogeneous Assay (ALPHA) platform. Binding of each protein pair results in proximity of the donor and acceptor beads which leads to an increase in ALPHA signal. Disruption of the protein-protein interaction with a test compound results in a decrease in ALPHA signal. Assays are performed in 25 mM Hepes (pH 7.4), 150 mM NaCl, 3.4 mM EDTA, 0.005% Tween 20, and 0.01% BSA. Final protein concentration in the assays were 0.3 nM (His tagged PD-L1), 2.5 nM (biotinylated Fc-PD-1), 1 nM (His tagged CTLA4) and 1 nM (biotinylated CD80). After an assay reaction time of 60 minutes at 25° C., binding was measured with addition of 20 μg/mL ALPHA assay acceptor beads (anti-His coated) and […] ALPHA assay donor beads (streptavidin coated). IC50 values were calculated from the fit of the dose-response curves to a four-parameter equation. Representative data are shown below in Table 1.

T1 sequence (Q9NZQ7 19-290): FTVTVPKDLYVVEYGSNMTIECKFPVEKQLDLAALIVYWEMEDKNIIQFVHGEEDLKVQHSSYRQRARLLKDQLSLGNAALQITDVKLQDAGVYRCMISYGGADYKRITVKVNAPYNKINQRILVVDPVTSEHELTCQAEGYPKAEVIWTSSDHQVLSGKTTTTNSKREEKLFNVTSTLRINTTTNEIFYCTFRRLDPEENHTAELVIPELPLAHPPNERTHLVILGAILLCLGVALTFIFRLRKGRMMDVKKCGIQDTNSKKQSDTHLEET
PD-1/PD-L1, sequence (Q9NZQ7 19-238 limits assumed): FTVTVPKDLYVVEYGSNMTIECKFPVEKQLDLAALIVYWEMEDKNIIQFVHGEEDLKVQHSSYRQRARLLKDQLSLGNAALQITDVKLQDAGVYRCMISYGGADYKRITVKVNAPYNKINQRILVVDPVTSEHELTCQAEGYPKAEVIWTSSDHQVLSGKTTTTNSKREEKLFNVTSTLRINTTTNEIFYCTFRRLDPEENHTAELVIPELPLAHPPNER

| Structure (SMILES) | EC50 [1] | IC50 [2] |
| --- | --- | --- |
| Cc1c(COc2cc(OCc3cncc(C#N)c3)c(CNC[C@@H](O)CO)cc2Br)cccc1-c1cccc(COc2cc(OCc3cncc(C#N)c3)c(CNC[C@@H](O)CO)cc2Br)c1C [Example 257, 5,5′-((((((2,2′-dimethyl-[1,1′-biphenyl]-3,3′-diyl)bis(methylene))bis(oxy))bis(4-bromo-6-((((R)-2,3-dihydroxypropyl)amino)methyl)-3,1-phenylene))bis(oxy))bis(methylene))dinicotinonitrile] | 657 nM | 24 nM |
| Cc1c(COc2cc(OCc3cncc(C#N)c3)c(CNCCO)cc2Cl)cccc1-c1cccc(COc2cc(OCc3ccc(F)c(C#N)c3)c(CNCCO)cc2Cl)c1C [Example 200, 5-((4-Chloro-5-((3′-((2-chloro-5-((3-cyano-4-fluorobenzyl)oxy)-4-(((2-hydroxyethyl)amino)methyl)phenoxy)methyl)-2,2′-dimethyl-[1,1′-biphenyl]-3-yl)methoxy)-2-(((2-hydroxyethyl)amino)methyl)phenoxy)methyl)nicotinonitrile] | 893 nM | 138 nM |
| Cc1c(COc2cc(OCc3cccnc3)c(CNCCO)cc2Cl)cccc1-c1cccc(COc2cc(OCc3cccnc3)c(CNCCO)cc2Cl)c1C [Example 22, 2,2′-((((((2,2′-dimethyl-[1,1′-biphenyl]-3,3′-diyl)bis(methylene))bis(oxy))bis(5-chloro-2-(pyridin-3-ylmethoxy)-4,1-phenylene))bis(methylene))bis(azanediyl))bis(ethan-1-ol)] | 2070 nM | 34.9 nM |
| COc1nc(OCc2cccc(-c3cccc(COc4ccc(CNC[C@H](O)CC(=O)O)c(OC)n4)c3Cl)c2Cl)ccc1CNC[C@H](O)CC(=O)O [Example 188, (3R,3′R)-4,4′-((((((2,2′-Dichloro-[1,1′-biphenyl]-3,3′-diyl)bis(methylene))bis(oxy))bis(2-methoxypyridine-6,3-diyl))bis(methylene))bis(azanediyl))bis(3-hydroxybutanoic acid)] | 1550 nM | 0.3 nM |
| Cc1c(COc2cc(OCc3cncc(C#N)c3)c(CNC[C@@H](O)CC(=O)O)cc2Cl)cccc1-c1cccc(-c2ccn3cc(CNC[C@@H](O)CC(=O)O)nc3c2)c1C [Example 397, (S)-4-(((7-(3′-((4-((((S)-3-carboxy-2-hydroxypropyl)amino)methyl)-2-chloro-5-((5-cyanopyridin-3-yl)methoxy)phenoxy)methyl)-2,2′-dimethyl-[1,1′-biphenyl]-3-yl)imidazo[1,2-a]pyridin-2-yl)methyl)amino)-3-hydroxybutanoic acid] | 709 nM | 0.064 nM |
| Cc1c(COc2cc(OCc3ccnc(C#N)c3)c(CNC[C@@H](O)CC(=O)O)cc2Cl)cccc1-c1cccc(COc2cc(OCc3ccnc(C#N)c3)c(CNC[C@@H](O)CC(=O)O)cc2Cl)c1C [Example 219, (3S,3′S)-4,4′-((((((2,2′-dimethyl-[1,1′-biphenyl]-3,3′-diyl)bis(methylene))bis(oxy))bis(5-chloro-2-((2-cyanopyridin-4-yl)methoxy)-4,1-phenylene))bis(methylene))bis(azanediyl))bis(3-hydroxybutanoic acid)] | 558 nM | 0.2 nM |
| Cc1c(COc2cc(OCc3cncc(C#N)c3)c(CNCc3ccccn3)cc2Br)cccc1-c1cccc(COc2cc(OCc3cncc(C#N)c3)c(CNCc3ccccn3)cc2Br)c1C [Example 275, 5,5′-((((((2,2′-dimethyl-[1,1′-biphenyl]-3,3′-diyl)bis(methylene))bis(oxy))bis(4-bromo-6-(((pyridin-2-ylmethyl)amino)methyl)-3,1-phenylene))bis(oxy))bis(methylene))dinicotinonitrile] | 10400 nM | 154 nM |
| Cc1c(-c2ccc(OCCNC[C@@H](O)CC(=O)O)cc2)cccc1-c1cccc2c1CC[C@@H]2Oc1nc(OCc2cncc(C#N)c2)c(CNC[C@@H](O)CC(=O)O)cc1Cl [Example 675] | 95 nM | 0.064 nM |
| Cc1c(COc2ccc(CNC[C@@H](O)CC(=O)O)cc2Cl)cccc1-c1cccc(COc2ccc(CNC[C@@H](O)CC(=O)O)cc2Cl)c1C [Example 283, (3S,3′S)-4,4′-((((((2,2′-dimethyl-[1,1′-biphenyl]-3,3′-diyl)bis(methylene))bis(oxy))bis(3-chloro-4,1-phenylene))bis(methylene))bis(azanediyl))bis(3-hydroxybutanoic acid)] | 20900 nM | 0.8 nM |
| Cc1c(COc2cc(OCc3cncc(C#N)c3)c(CNCCO)cc2Cl)cccc1-c1cccc(-c2ccc(CNCCCC(=O)O)cc2)c1C [Example 334, 4-(((3″-((2-chloro-5-((5-cyanopyridin-3-yl)methoxy)-4-(((2-hydroxyethyl)amino)methyl)phenoxy)methyl)-2′,2″-dimethyl-[1,1′:3′,1″-terphenyl]-4-yl)methyl)amino)butanoic acid] | – | 0.143 nM |
| N#Cc1cncc(COc2nc(OCc3cccc(-c4cccc(COc5nc(OCc6cncc(C#N)c6)c(CNC[C@@H](O)CC(=O)O)cc5Br)c4Cl)c3Cl)c(Br)cc2CNC[C@@H](O)CC(=O)O)c1 [Example 563] | – | 0.317 nM |
| Cc1c(COc2nc(OCc3cccc(C#N)c3)c(CNC[C@@H](O)CC(=O)O)cc2Cl)cccc1-c1cccc(COc2nc(OCc3cccc(C#N)c3)c(CNC[C@@H](O)CC(=O)O)cc2Cl)c1C [Example 153, (3S,3′S)-4,4′-((((((2,2′-dimethyl-[1,1′-biphenyl]-3,3′-diyl)bis(methylene))bis(oxy))bis(5-chloro-2-((3-cyanobenzyl)oxy)pyridine-6,3-diyl))bis(methylene))bis(azanediyl))bis(3-hydroxybutanoic acid)] | 329 nM | – |
| COc1nc(OCc2cccc(-c3cccc(COc4nc(OC)c(CN5CC[C@@H](O)C5)cc4Br)c3C)c2C)c(Br)cc1CN1CC[C@@H](O)C1 [Example 247, (3R,3′R)-1,1′-(((((2,2′-dimethyl-[1,1′-biphenyl]-3,3′-diyl)bis(methylene))bis(oxy))bis(5-bromo-2-methoxypyridine-6,3-diyl))bis(methylene))bis(pyrrolidin-3-ol)] | 776 nM | – |
| Cc1c(COc2nc(OCc3cccc(C#N)n3)c(CNC[C@@H](O)CC(=O)O)cc2Br)cccc1-c1cccc(COc2nc(OCc3cccc(C#N)n3)c(CNC[C@@H](O)CC(=O)O)cc2Br)c1C [Example 152, (3S,3′S)-4,4′-((((((2,2′-dimethyl-[1,1′-biphenyl]-3,3′-diyl)bis(methylene))bis(oxy))bis(5-bromo-2-((6-cyanopyridin-2-yl)methoxy)pyridine-6,3-diyl))bis(methylene))bis(azanediyl))bis(3-hydroxybutanoic acid)] | 594 nM | – |
| COc1nc(OCc2cccc(-c3cccc(COc4nc(OC)c(CNC56CC(C(=O)O)(C5)C6)cc4Cl)c3C)c2C)c(Cl)cc1CNC12CC(C(=O)O)(C1)C2 [Example 85, 3,3′-((((((2,2′-dimethyl-[1,1′-biphenyl]-3,3′-diyl)bis(methylene))bis(oxy))bis(5-chloro-2-methoxypyridine-6,3-diyl))bis(methylene))bis(azanediyl))bis(bicyclo[1.1.1]pentane-1-carboxylic acid)] | 9770 nM | – |
